Results from patent publication US6054435A, “6-O-substituted macrolides having antibacterial activity” (priority 1999, dated 2000).
≈ marks a conversion by molar mass, not a printed value.

Assays:
Assay in all cases: in vitro antibacterial activity (MIC), agar dilution
Type in all cases: cell-based
[1] = tested on: Streptococcus Pneumonia GYR 1171; settings: organism code YY; BHI agar, 35-37° C., 20 to 24 hours; unit assumed
Method in brief: (§1)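 BHI agar incorporation method; twelve compound concentrations. Streptococcus and other slow growers inoculated at 1:10, other strains at 1:100. Visual MIC read-out versus growth control.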

[2] = tested on: Staphylococcus epidermidis 3519; settings: organism code HH; BHI agar, 35-37° C., 20 to 24 hours; unit assumed
Method in brief: as §1

[3] = tested on: Streptococcus pyogenes EES61; settings: organism code LL; BHI agar, 35-37° C., 20 to 24 hours; unit assumed
Method in brief: as §1

[4] = tested on: Mycobacterium smegmatis ATCC 114; settings: organism code UU; BHI agar, 35-37° C., 20 to 24 hours; unit assumed
Method in brief: as §1

[5] = tested on: Staphylococcus aureus 1775; settings: organism code GG; BHI agar, 35-37° C., 20 to 24 hours; unit assumed
Method in brief: as §1

[6] = tested on: Micrococcus luteus ATCC 9341; settings: organism code OO; BHI agar, 35-37° C., 20 to 24 hours; unit assumed
Method in brief: (§2)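 Agar dilution on BHI agar with twelve successive compound dilutions; plates inoculated by Steers replicator with 1:100 culture dilutions (1:10 for slow growers such as Streptococcus). MIC is the lowest concentration giving no growth, slight haze or sparse colonies versus a drug-free control.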

[7] = tested on: Streptococcus Pneumonia 5649; settings: organism code ZZA; BHI agar, 35-37° C., 20 to 24 hours; unit assumed
Method in brief: as §1

[8] = tested on: Staphylococcus aureus ATCC 6538P; settings: organism code AA; BHI agar, 35-37° C., 20 to 24 hours; unit assumed
Method in brief: as §1

[9] = tested on: Streptococcus bovis A-5169; settings: organism code JJ; BHI agar, 35-37° C., 20 to 24 hours; unit assumed
Method in brief: as §1

[10] = tested on: Streptococcus Pneumonia ATCC6303; settings: organism code XX; BHI agar, 35-37° C., 20 to 24 hours; unit assumed
Method in brief: as §1

[11] = tested on: Streptococcus pyogenes 930; settings: organism code MM; BHI agar, 35-37° C., 20 to 24 hours; unit assumed
Method in brief: as §1

[12] = tested on: Enterococcus faecium ATCC 8043; settings: organism code II; BHI agar, 35-37° C., 20 to 24 hours; unit assumed
Method in brief: as §1

[13] = tested on: Escherichia coli SS; settings: organism code RR; BHI agar, 35-37° C., 20 to 24 hours; unit assumed
Method in brief: as §1

[14] = tested on: Streptococcus Pneumonia 5979; settings: organism code ZZ; BHI agar, 35-37° C., 20 to 24 hours; unit assumed
Method in brief: as §1

[15] = tested on: Candida albicans CCH 442; settings: organism code TT; BHI agar, 35-37° C., 20 to 24 hours; unit assumed
Method in brief: as §1

[16] = tested on: Staphylococcus aureus A-5278; settings: organism code CC; BHI agar, 35-37° C., 20 to 24 hours; unit assumed
Method in brief: as §1

[17] = tested on: Nocardia Asteroides ATCC9970; settings: organism code VV; BHI agar, 35-37° C., 20 to 24 hours; unit assumed
Method in brief: as §1

[18] = tested on: Streptococcus agalactiae CMX 508; settings: organism code KK; BHI agar, 35-37° C., 20 to 24 hours; unit assumed
Method in brief: as §1

[19] = tested on: Escherichia coli DC-2; settings: organism code SS; BHI agar, 35-37° C., 20 to 24 hours; unit assumed
Method in brief: as §1

[20] = tested on: Staphylococcus aureus CMX 553; settings: organism code FF; BHI agar, 35-37° C., 20 to 24 hours; unit assumed
Method in brief: as §1

[21] = tested on: Escherichia coli JUHL; settings: organism code QQ; BHI agar, 35-37° C., 20 to 24 hours; unit assumed
Method in brief: as §1

[22] = tested on: Staphylococcus aureus CMX 642A; settings: organism code DD; BHI agar, 35-37° C., 20 to 24 hours; unit assumed
Method in brief: as §1

[23] = tested on: Staphylococcus aureus A5177; settings: organism code BB; BHI agar, 35-37° C., 20 to 24 hours; unit assumed
Method in brief: as §1

[24] = tested on: Haemophilis Influenzae DILL AMP R; settings: organism code WW; BHI agar, 35-37° C., 20 to 24 hours; unit assumed
Method in brief: as §1

[25] = tested on: Micrococcus luteus ATCC 4698; settings: organism code PP; BHI agar, 35-37° C., 20 to 24 hours; unit assumed
Method in brief: as §2

[26] = tested on: Staphylococcus aureus NCTC10649M; settings: organism code EE; BHI agar, 35-37° C., 20 to 24 hours; unit assumed
Method in brief: as §1

[27] = tested on: Streptococcus pyogenes PIU 2548; settings: organism code NN; BHI agar, 35-37° C., 20 to 24 hours; unit assumed
Method in brief: as §1

Structure (SMILES) | MIC [1] [µg/mL] | MIC [2] [µg/mL] | MIC [3] [µg/mL] | MIC [4] [µg/mL] | MIC [5] [µg/mL] | MIC [6] [µg/mL] | MIC [7] [µg/mL] | MIC [8] [µg/mL] | MIC [9] [µg/mL] | MIC [10] [µg/mL] | MIC [11] [µg/mL] | MIC [12] [µg/mL] | MIC [13] [µg/mL] | MIC [14] [µg/mL] | MIC [15] [µg/mL] | MIC [16] [µg/mL] | MIC [17] [µg/mL] | MIC [18] [µg/mL] | MIC [19] [µg/mL] | MIC [20] [µg/mL] | further results
CC[C@H]1OC(=O)[C@H](C)C(=O)[C@H](C)[C@@H](O[C@@H]2O[C@H](C)C[C@H](N(C)C)[C@H]2O)[C@](C)(OCC#Cc2ccc(-c3cnc4ccccc4n3)s2)C[C@@H](C)C(=O)[C@H](C)[C@H]2NC(=O)O[C@@]21C [Example 33] | 0.03 (≈ 0.0354 µM) | 0.2 (≈ 0.236 µM) | 0.02 (≈ 0.0236 µM) | 0.2 (≈ 0.236 µM) | 50 (≈ 59 µM) | 0.05 (≈ 0.059 µM) | 0.25 (≈ 0.295 µM) | 0.2 (≈ 0.236 µM) | 0.01 (≈ 0.0118 µM) | 0.03 (≈ 0.0354 µM) | 0.39 (≈ 0.46 µM) | 0.05 (≈ 0.059 µM) | 0.78 (≈ 0.921 µM) | 0.25 (≈ 0.295 µM) | > 100 | 25 (≈ 29.5 µM) | 0.1 (≈ 0.118 µM) | 0.01 (≈ 0.0118 µM) | > 100 | 0.2 (≈ 0.236 µM) | MIC [21]: > 100 µg/mL; MIC [22]: 0.2 µg/mL (≈ 0.236 µM); MIC [23]: 0.2 µg/mL (≈ 0.236 µM); MIC [24]: 4 µg/mL (≈ 4.72 µM); MIC [25]: 0.05 µg/mL (≈ 0.059 µM); MIC [26]: 0.39 µg/mL (≈ 0.46 µM); MIC [27]: 0.2 µg/mL (≈ 0.236 µM)
CC[C@H]1OC(=O)[C@H](C)C(=O)[C@H](C)[C@@H](O[C@@H]2O[C@H](C)C[C@H](N(C)C)[C@H]2O)[C@](C)(OCC#Cc2ccc(-c3cncnc3)s2)C[C@@H](C)C(=O)[C@H](C)[C@H]2NC(=O)O[C@@]21C [Example 4] | 0.03 (≈ 0.0376 µM) | 0.1 (≈ 0.125 µM) | 0.01 (≈ 0.0125 µM) | 0.78 (≈ 0.979 µM) | > 100 | 0.01 (≈ 0.0125 µM) | 0.5 (≈ 0.627 µM) | 0.1 (≈ 0.125 µM) | ≤ 0.005 | 0.03 (≈ 0.0376 µM) | 12.5 (≈ 15.7 µM) | 0.02 (≈ 0.0251 µM) | 0.39 (≈ 0.489 µM) | 2 (≈ 2.51 µM) | > 100 | > 100 | 0.02 (≈ 0.0251 µM) | 0.01 (≈ 0.0125 µM) | 50 (≈ 62.7 µM) | 0.1 (≈ 0.125 µM) | MIC [21]: 50 µg/mL (≈ 62.7 µM); MIC [22]: 0.1 µg/mL (≈ 0.125 µM); MIC [23]: 0.1 µg/mL (≈ 0.125 µM); MIC [24]: 2 µg/mL (≈ 2.51 µM); MIC [25]: 0.05 µg/mL (≈ 0.0627 µM); MIC [26]: 0.1 µg/mL (≈ 0.125 µM); MIC [27]: 0.1 µg/mL (≈ 0.125 µM)
CC[C@H]1OC(=O)[C@H](C)C(=O)[C@H](C)[C@@H](O[C@@H]2O[C@H](C)C[C@H](N(C)C)[C@H]2O)[C@](C)(OCC#Cc2ccc(-c3nccs3)s2)C[C@@H](C)C(=O)[C@H](C)[C@H]2NC(=O)O[C@@]21C [Example 28] | 0.03 (≈ 0.0374 µM) | 0.05 (≈ 0.0623 µM) | ≤ 0.005 | 0.2 (≈ 0.249 µM) | > 100 | 0.01 (≈ 0.0125 µM) | 0.25 (≈ 0.312 µM) | 0.05 (≈ 0.0623 µM) | ≤ 0.005 | 0.03 (≈ 0.0374 µM) | 12.5 (≈ 15.6 µM) | 0.05 (≈ 0.0623 µM) | 0.1 (≈ 0.125 µM) | 1 (≈ 1.25 µM) | > 100 | > 100 | 0.05 (≈ 0.0623 µM) | 0.02 (≈ 0.0249 µM) | 12.5 (≈ 15.6 µM) | 0.05 (≈ 0.0623 µM) | MIC [21]: 25 µg/mL (≈ 31.2 µM); MIC [22]: 0.05 µg/mL (≈ 0.0623 µM); MIC [23]: 0.05 µg/mL (≈ 0.0623 µM); MIC [24]: 2 µg/mL (≈ 2.49 µM); MIC [25]: 0.1 µg/mL (≈ 0.125 µM); MIC [26]: 0.1 µg/mL (≈ 0.125 µM); MIC [27]: 0.1 µg/mL (≈ 0.125 µM)
CCOC(=O)c1cncc(-c2ccc(C#CCO[C@]3(C)C[C@@H](C)C(=O)[C@H](C)[C@H]4NC(=O)O[C@]4(C)[C@@H](CC)OC(=O)[C@H](C)C(=O)[C@H](C)[C@H]3O[C@@H]3O[C@H](C)C[C@H](N(C)C)[C@H]3O)s2)c1 [Example 10] | 0.03 (≈ 0.0346 µM) | 0.2 (≈ 0.23 µM) | 0.01 (≈ 0.0115 µM) | 1.56 (≈ 1.8 µM) | > 100 | 0.01 (≈ 0.0115 µM) | 0.5 (≈ 0.576 µM) | 0.1 (≈ 0.115 µM) | 0.005 (≈ 0.00576 µM) | 0.03 (≈ 0.0346 µM) | 50 (≈ 57.6 µM) | 0.1 (≈ 0.115 µM) | 0.78 (≈ 0.899 µM) | 4 (≈ 4.61 µM) | > 100 | > 100 | 0.1 (≈ 0.115 µM) | 0.01 (≈ 0.0115 µM) | > 100 | 0.05 (≈ 0.0576 µM) | MIC [21]: > 100 µg/mL; MIC [22]: 0.1 µg/mL (≈ 0.115 µM); MIC [23]: 0.1 µg/mL (≈ 0.115 µM); MIC [24]: 8 µg/mL (≈ 9.22 µM); MIC [25]: 0.2 µg/mL (≈ 0.23 µM); MIC [26]: 0.2 µg/mL (≈ 0.23 µM); MIC [27]: 0.2 µg/mL (≈ 0.23 µM)
